# Measured values taken from ChEMBL document CHEMBL1151658, “Degradation of Lycorine by Pseudomonas Species Strain ITM 311” (1985).
# Activity calls are given as the source filed them. No cut-off for these calls is given here.
# Experiments:
# [1] = system: Rhodococcus fascians; assay: Antimicrobial activity against Corynebacterium fascians NCPPB 2551 at 0.0005 molarity/paper disk; assay type: functional, Rhodococcoides fascians
# [2] = system: Rhodococcus fascians; assay: Antimicrobial activity against Corynebacterium fascians NCPPB 2551 at 0.01 molarity/paper disk; assay type: functional, Rhodococcoides fascians
# [3] = system: Rhodococcus fascians; assay: Antimicrobial activity against Corynebacterium fascians NCPPB 2551 at 0.001 molarity/paper disk; assay type: functional, Rhodococcoides fascians
# [4] = system: Rhodococcus fascians; assay: Antimicrobial activity against Corynebacterium fascians NCPPB 2551 at 0.0001 molarity/paper disk; assay type: functional, Rhodococcoides fascians
# [5] = system: Priestia megaterium; assay: Antimicrobial activity against Bacillus megaterium ITM 80 after 48 to 72 hrs by paper disk method; assay type: functional, organism-based
# [6] = system: Pseudomonas coronafaciens; assay: Antimicrobial activity against Pseudomonas coronafaciens NCPPB 2481 after 48 to 72 hrs by paper disk method; assay type: functional, organism-based
# [7] = system: Pseudomonas syringae; assay: Antimicrobial activity against Pseudomonas syringae pv. tomato NCPPB 2563 after 48 to 72 hrs by paper disk method; assay type: functional, organism-based
# [8] = system: Pseudomonas syringae; assay: Antimicrobial activity against Pseudomonas syringae pv. syringae NCPPB ITM24 after 48 to 72 hrs by paper disk method; assay type: functional, organism-based
# [9] = system: Pseudomonas syringae; assay: Antimicrobial activity against Pseudomonas syringae pv. tabaci NCPPB 2730 after 48 to 72 hrs by paper disk method; assay type: functional, organism-based; conditions: Pseudomonas amygdali pv. tabaci
# [10] = system: Pseudomonas; assay: Antimicrobial activity against Pseudomonas ITM 311 after 48 to 72 hrs by paper disk method; assay type: functional, organism-based
# [11] = system: Pseudomonas cichorii; assay: Antimicrobial activity against Pseudomonas cichorii NCPPB 2379 after 48 to 72 hrs by paper disk method; assay type: functional, organism-based
# [12] = system: Pseudomonas savastanoi; assay: Antimicrobial activity against Pseudomonas savastanoi ITM 519 after 48 to 72 hrs by paper disk method; assay type: functional, organism-based
# [13] = system: Xanthomonas euvesicatoria; assay: Antimicrobial activity against Xanthomonas campestris pv. vesicatoria NCPPB 1616 after 48 to 72 hrs by paper disk method; assay type: functional, organism-based
# [14] = system: Pectobacterium carotovorum; assay: Antimicrobial activity against Erwinia carotovora subsp. carotovora NCPPB ITM 180 after 48 to 72 hrs by paper disk method; assay type: functional, organism-based
# [15] = system: Pseudomonas syringae; assay: Antimicrobial activity against Pseudomonas syringae pv. maculicola NCPPB 1777 after 48 to 72 hrs by paper disk method; assay type: functional, organism-based
# [16] = system: Curtobacterium flaccumfaciens; assay: Antimicrobial activity against Corynebacterium flaccumfaciens NCPPB 559 after 48 to 72 hrs by paper disk method; assay type: functional, organism-based
# [17] = system: Agrobacterium tumefaciens; assay: Antimicrobial activity against Agrobacterium tumefaciens ITM 71 after 48 to 72 hrs by paper disk method; assay type: functional, organism-based
Structure (SMILES),inhibition zone (IZ) [1],inhibition zone (IZ) [2],inhibition zone (IZ) [3],inhibition zone (IZ) [4],Activity [5],Activity [6],Activity [7],Activity [8],Activity [9],Activity [10],Activity [11],Activity [12],Activity [13],Activity [14],Activity [15],Activity [16],Activity [17]
Oc1ccc2c3c1c1cc4c(cc1c[n+]3CC2)OCO4.[Cl-],0 mm,10 mm,7 mm,0 mm,,,,,,,,,,,,,
O=C1N[C@@H]2C(=C[C@H](O)[C@@H](O)[C@H]2O)c2cc3c(c(O)c21)OCO3 [NARCICLASINE],0 mm,0 mm,0 mm,0 mm,,,,,,,,,,,,,
O=c1c2cc3c(cc2c2cccc4c2n1CC4)OCO3,9 mm,25 mm,12 mm,0 mm,,,,,,,,,,,,,
[O-]c1cc2c3c(c1)c1cc4c(cc1c[n+]3CC2)OCO4 [UNGEREMINE],0 mm,15 mm,14 mm,0 mm,Active,Active,Active,Active,Active,inactive,Active,Active,Active,Active,Active,Active,Active
[Cl-].c1cc2c3c(c1)c1cc4c(cc1c[n+]3CC2)OCO4 [ANHYDROLYCORINIUM CHLORIDE],16 mm,30 mm,24 mm,10 mm,Active,Active,Active,Active,Active,inactive,Active,Active,Active,Active,Active,Active,Active
Oc1cc2c3c(c1)c1cc4c(cc1c[n+]3CC2)OCO4.[Cl-],0 mm,0 mm,0 mm,0 mm,,,,,,,,,,,,,
O[C@H]1[C@H]2c3cc4c(cc3CN3CCC(=C[C@@H]1O)[C@H]23)OCO4 [LYCORINE],0 mm,0 mm,0 mm,0 mm,,,,,,,,,,,,,
c1cc2c3c(c1)-c1cc4c(cc1CN3CC2)OCO4 [ANHYDROLYCORINE],15 mm,25 mm,25 mm,0 mm,,,,,,,,,,,,,
